Laboratory results from US9550763B2, “Heterocyclic ring and carbocyclic derivative” (Shionogi & Co., Ltd., priority 2012, dated 2017).

These compounds were tested against T1, human P2X3 receptor (Homo sapiens (Human), UniProt P56373) (assay: Evaluation of human P2X3 receptor inhibitory activity (Test Example 1-1, FDSS 3000, 96-well, 50 nM ATP)). Conditions: human P2X3 receptor in C6BU-1 cells; Test Example 1-1 (compounds I-001 to I-300).
Format: cell-based
Summary of the method: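 C6BU-1 cells stably expressing human P2X3, loaded with 4 μM Fluo-3-AM (pH 7.5), preincubated 5 min with compound before 50 nM ATP challenge; fluorescence followed 4 min on FDSS 3000. IC50 derived from peak/baseline fluorescence ratio, no-compound as 0% and buffer-instead-of-ATP as 100% inhibition.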

T1 sequence (P56373 whole entry): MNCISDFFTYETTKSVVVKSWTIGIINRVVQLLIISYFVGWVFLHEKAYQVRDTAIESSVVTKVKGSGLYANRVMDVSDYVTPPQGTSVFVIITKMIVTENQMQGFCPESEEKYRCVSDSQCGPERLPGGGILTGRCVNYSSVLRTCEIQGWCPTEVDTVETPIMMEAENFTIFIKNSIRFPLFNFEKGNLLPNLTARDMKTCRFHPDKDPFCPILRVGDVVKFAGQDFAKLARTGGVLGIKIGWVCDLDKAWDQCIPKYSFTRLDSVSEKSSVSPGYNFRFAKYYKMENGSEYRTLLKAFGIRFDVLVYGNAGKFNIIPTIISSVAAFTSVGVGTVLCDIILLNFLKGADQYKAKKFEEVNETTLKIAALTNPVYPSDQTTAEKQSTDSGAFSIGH

| SMILES | IC50 |
| --- | --- |
| Cc1cc(C(=O)Nc2c[nH]/c(=N\c3ccc(Oc4ccon4)cc3)n(Cc3ccc(Cl)cc3)c2=O)on1 [Compound I-255] | 147 nM |
| Cc1noc(C)c1C(=O)Nc1c[nH]/c(=N\c2ccc(Oc3ccon3)cc2)n(Cc2ccc(Cl)cc2)c1=O [Compound I-256] | 14 nM |
| CNC(=O)c1c[nH]/c(=N\c2ccc(Oc3nc(C)ns3)cc2)n(Cc2ccc(Cl)cc2)c1=O [Compound I-257] | 41 nM |
| CCn1c(=O)cc(Nc2ccc(Oc3cccc(C(=O)O)c3)c(C)n2)n(Cc2ccc(Cl)cc2)c1=O [Compound I-258] | 27 nM |
| CCCn1c(=O)cc(Nc2ccc(Oc3cccc(C(=O)O)c3)c(C)n2)n(Cc2ccc(Cl)cc2)c1=O [Compound I-259] | 16 nM |
| CCn1c(=O)cc(Nc2ccc(Oc3cccc(C(N)=O)c3)c(C)n2)n(Cc2ccc(Cl)cc2)c1=O [Compound I-260] | 36 nM |
| N#Cc1c[nH]/c(=N\c2ccc(Oc3ccc(F)cn3)cc2)n(Cc2ccc(Cl)cc2)c1=O [Compound I-261] | 498 nM |
| CCc1oc2ccc(/N=c3\[nH]cc(NC(=O)C4CCOCC4)c(=O)n3Cc3ccc(Cl)cn3)cc2c1C [Compound I-262] | 98 nM |
| Cc1nocc1C(=O)Nc1c[nH]/c(=N\c2ccc(Oc3ccon3)cc2)n(Cc2ccc(Cl)cc2)c1=O [Compound I-264] | 15 nM |
| O=C(Nc1c[nH]/c(=N\c2ccc(Oc3ccon3)cc2)n(Cc2ccc(Cl)cc2)c1=O)c1cccnc1 [Compound I-265] | 48 nM |
| O=C(Nc1c[nH]/c(=N\c2ccc(Oc3ccon3)cc2)n(Cc2ccc(Cl)cc2)c1=O)c1ccncc1 [Compound I-266] | 68 nM |
| O=C(Nc1c[nH]/c(=N\c2ccc(Oc3ccon3)cc2)n(Cc2ccc(Cl)cc2)c1=O)c1ccoc1 [Compound I-267] | 45 nM |
| O=C(Nc1c[nH]/c(=N\c2ccc(Oc3ccon3)cc2)n(Cc2ccc(Cl)cc2)c1=O)c1cocn1 [Compound I-268] | 85 nM |
| Cc1oncc1C(=O)Nc1c[nH]/c(=N\c2ccc(Oc3ccon3)cc2)n(Cc2ccc(Cl)cc2)c1=O [Compound I-269] | 16 nM |
| CC(c1ccc(Cl)cc1)n1cc(C(=O)NC2CCOCC2)c(=O)nc1Nc1ccc(Oc2cccc(F)n2)cc1 (stereo not drawn) [Compound I-270] | 175 nM |
| O=c1c(-c2ccccn2)c[nH]/c(=N\c2ccc(Oc3ccon3)cc2)n1Cc1ccc(Cl)cc1 [Compound I-272] | 211 nM |
| O=c1c(-c2cccnc2)c[nH]/c(=N\c2ccc(Oc3ccon3)cc2)n1Cc1ccc(Cl)cc1 [Compound I-273] | 201 nM |
| O=c1c(-c2ccncc2)c[nH]/c(=N\c2ccc(Oc3ccon3)cc2)n1Cc1ccc(Cl)cc1 [Compound I-274] | 356 nM |
| O=C(Nc1c[nH]/c(=N\c2ccc(Oc3ccon3)cc2)n(Cc2ccc(Cl)cn2)c1=O)C1CCOCC1 [Compound I-275] | 51 nM |

| SMILES | IC50 |
| --- | --- |
| CCC(=O)Nc1c[nH]/c(=N\c2ccc(Oc3ccnc(C#N)c3)cc2)n(Cc2ccc(Cl)cn2)c1=O [Compound I-276] | 165 nM |
| CCC(=O)Nc1c[nH]/c(=N\c2ccc(Oc3ccnc(C(N)=O)c3)cc2)n(Cc2ccc(Cl)cn2)c1=O [Compound I-277] | 172 nM |
| Cc1cnc(-c2c[nH]/c(=N\c3ccc(Oc4cccc(C#N)n4)cc3)n(Cc3ccc(Cl)cc3)c2=O)o1 [Compound I-278, 1-(4-chlorobenzyl)-2-[4-(6-cyano-2-pyridyloxy)phenylamino]-5-(5-methyloxazol-2-yl)pyrimidin-6(1H)-one] | 20 nM |
| O=C(NC1CCOCC1)c1cn(Cc2ccccc2)c(Nc2ccc(Oc3cccc(F)n3)cc2)nc1=O [Compound I-280] | 139 nM |
| O=C(NC1CCOCC1)c1cn(Cc2ccc(F)cc2)c(Nc2ccc(Oc3cccc(F)n3)cc2)nc1=O [Compound I-281] | 41 nM |
| Cc1ccc(Cn2cc(C(=O)NC3CCOCC3)c(=O)nc2Nc2ccc(Oc3cccc(F)n3)cc2)cc1 [Compound I-282] | 6 nM |
| O=C(NC1CCOCC1)c1cn(Cc2cccc(F)c2)c(Nc2ccc(Oc3cccc(F)n3)cc2)nc1=O [Compound I-283] | 226 nM |
| O=C(NC1CCOCC1)c1cn(Cc2ccccc2F)c(Nc2ccc(Oc3cccc(F)n3)cc2)nc1=O [Compound I-284] | 42 nM |
| CCC(=O)Nc1c[nH]/c(=N\c2ccc(Oc3ccnc(C(=O)OC)c3)cc2)n(Cc2ccc(Cl)cn2)c1=O [Compound I-287] | 356 nM |
| Cc1cnc(-c2c[nH]/c(=N\c3ccc(Oc4cccc(C(N)=O)n4)cc3)n(Cc3ccc(Cl)cc3)c2=O)o1 [Compound I-288] | 15 nM |
| CCC(=O)Nc1c[nH]/c(=N\c2ccc(Oc3ccnc(C(=O)O)c3)cc2)n(Cc2ccc(Cl)cn2)c1=O [Compound I-289] | 24 nM |
| Cc1cnc(-c2c[nH]/c(=N\c3ccc(Oc4cccc(C(=O)O)n4)cc3)n(Cc3ccc(Cl)cc3)c2=O)o1 [Compound I-290, 1-(4-chlorobenzyl)-2-[4-(6-hydroxycarbonyl-2-pyridyloxy)phenylamino]-5-(5-methyloxazol-2-yl)pyrimidin-6(1H)-one] | 4 nM |
| Cc1cnc(-c2c[nH]/c(=N\c3ccc(Oc4ccon4)cc3)n(Cc3ccc(Cl)cc3)c2=O)o1 [Compound I-294] | 84 nM |
| O=C(NC1CCOCC1)c1cn(Cc2ccccn2)c(Nc2ccc(Oc3cccc(F)n3)cc2)nc1=O [Compound I-295] | 618 nM |
| CN(C)C(=O)CNC(=O)c1cn(Cc2ccc(Cl)cc2)c(Nc2ccc(Oc3ccc(F)cn3)cc2)nc1=O [Compound I-297] | 21 nM |
| Cc1ccc(Oc2ccc(Nc3nc(=O)c(C(=O)NCC(=O)N(C)C)cn3Cc3ccc(Cl)cc3)cc2)nn1 [Compound I-298] | 23 nM |
| CN(C)C(=O)CNC(=O)c1cn(Cc2ccc(Cl)cc2)c(Nc2ccc(Oc3cccc(F)n3)cc2)nc1=O [Compound I-299] | 18 nM |
| O=C(Nc1cnc(Nc2ccc3nc(C(F)F)sc3c2)n(Cc2ccc(Cl)cc2)c1=O)C1CCOCC1 [Compound I-300] | 15 nM |

Each compound was assayed against T1, human P2X3 receptor (assay: Evaluation of human P2X3 receptor inhibitory activity (Test Example 1-2, FLIPR 384, 384-well, 150 nM ATP)). Conditions: human P2X3 receptor in C6BU-1 cells; Test Example 1-2 (compounds I-301 to I-483); read-out: P2X3 IC50.
Format: cell-based
Description: Stably expressing cell line (C6BU-1 cell transfected with human P2X3 receptor gene (GenBank accession number Y07683) was used. The cells were seeded in a 384-well microtiter plate at a concentration of 3000 cells/well and cultured in the medium (7.0% fetal bovine serum, 7.0% horse serum, 1% antibiotic and antifungal in DMEM) for one day at 37° C. under 5% carbon dioxide atmosphere. The medium was replaced with 4 μM Fluo-3-AM solution (20 mM HEPES, […], 5.27 mM KCl, 0.9 mM MgCl2, 1.26 mM CaCl2, 5.6 mM D-glucose, 2.5 mM probenecid, 0.5% BSA, and 0.04% Pluronic F-127, pH 7.5) and incubated at 37° C. under 5% dioxide carbon atmosphere for one hour. The plate was washed with washing buffer (20 mM HEPES, 137 mM NaCl, 5.27 mM KCl, 0.9 mM MgCl2, 1.26 mM CaCl2, 5.6 mM D-glucose, 2.5 mM probenecid, pH7.5), and each well was added with 20 μL of this buffer. The plate was placed in High-Throughput Screening System FLIPR 384 (Molecular Device Co.). Measurement of fluorescence intensity by FLIPR 384 was started, and 20 μL of DMSO solutions containing different concentrations of the test compound as prepared by dilution with dilution buffer (20 mM HEPES, 137 mM NaCl, 5.27 mM KCl, 0.9 mM MgCl2, 1.26 mM CaCl2, 5.6 mM D-glucose, 2.5 mM probenecid, 0.1% Pluronic F-127, pH 7.5) were dispensed to each well through the built-in automatic dispenser. Five minutes after, 150 nM ATP solution (25 μL) prepared by dilution with the dilution buffer was dispensed through the built-in automatic dispenser, and the measurement of fluorescence intensity was continued for 4 min. For each well, the specific maximum fluorescence intensity was calculated as the ratio of the maximum fluorescence intensity after addition of the ATP solution to the fluorescence intensity at the starting of the measurement. The 50% inhibitory concentration (IC50) was calculated under the assumption that the specific maximum fluorescence intensity without test compound is 0% inhibition and that the specific maximum fluorescence intensity when the dilution buffer was added in place of ATP solution is 100% inhibition, to evaluate the inhibitory activity of the test compound. The specific maximum fluorescence intensity and IC50 were calculated using Spotfire (Science & Technology Systems, Inc.)
The data of the compounds I-001 to I-300 are the results by the method mentioned in Test Example 1-1, and the data of the compounds I-301 to I-483 are the results by the method mentioned in Test Example 1-2.

| SMILES | IC50 |
| --- | --- |
| CCCn1c(=O)c(F)c(Nc2ccc(Oc3cccc(C#N)n3)c(C)n2)n(Cc2ccc(Cl)cc2)c1=O [Compound I-301] | 163 nM |
| CCCn1c(=O)c(F)c(Nc2ccc(Oc3cccc(C(=O)O)c3)cc2)n(Cc2ccc(Cl)cc2)c1=O [Compound I-303] | 109 nM |
| CCC(=O)Nc1c[nH]/c(=N\c2ccc(Oc3ccc(C(=O)OC)nn3)cc2)n(Cc2ccc(Cl)cc2)c1=O [Compound I-305] | 5 nM |
| CCC(=O)Nc1c[nH]/c(=N\c2ccc(Oc3ccc(C#N)nn3)cc2)n(Cc2ccc(Cl)cc2)c1=O [Compound I-306] | 19 nM |
| O=c1c(Nc2ccon2)c[nH]/c(=N\c2ccc(Oc3ccon3)cc2)n1Cc1ccc(Cl)cc1 [Compound I-307] | 21 nM |
| Cc1noc(-c2c[nH]/c(=N\c3ccc(Oc4cccc(C#N)n4)cc3)n(Cc3ccc(Cl)cc3)c2=O)n1 [Compound I-310] | 16 nM |
| CCOC(=O)c1cnc(Oc2ccc(/N=c3\[nH]cc(-c4nc(C)no4)c(=O)n3Cc3ccc(Cl)cc3)cc2)s1 [Compound I-311] | 31 nM |
| COC(=O)c1ccc(Oc2ccc(/N=c3\[nH]cc(-c4nc(C)no4)c(=O)n3Cc3ccc(Cl)cc3)cc2)nn1 [Compound I-312] | 7 nM |
| Cc1noc(-c2c[nH]/c(=N\c3ccc(Oc4ncc(C(=O)O)s4)cc3)n(Cc3ccc(Cl)cc3)c2=O)n1 [Compound I-314] | 10 nM |
| Cc1noc(-c2c[nH]/c(=N\c3ccc(Oc4ccc(C(N)=O)nn4)cc3)n(Cc3ccc(Cl)cc3)c2=O)n1 [Compound I-315] | 10 nM |
| Cc1noc(-c2c[nH]/c(=N\c3ccc(Oc4cccc(C(N)=O)n4)cc3)n(Cc3ccc(Cl)cc3)c2=O)n1 [Compound I-316] | 13 nM |
| Cc1noc(-c2c[nH]/c(=N\c3ccc(Oc4ccc(C(=O)O)nn4)cc3)n(Cc3ccc(Cl)cc3)c2=O)n1 [Compound I-317] | 13 nM |
| O=c1c(Nc2ccon2)c[nH]/c(=N\c2ccc(Oc3ccc(F)cn3)cc2)n1Cc1ccc(Cl)cc1 [Compound I-318] | 27 nM |
| N#Cc1cccc(Oc2ccc(/N=c3\[nH]cc(Nc4ccon4)c(=O)n3Cc3ccc(Cl)cc3)cc2)n1 [Compound I-319] | 19 nM |
